Source: patent US11161860B2, “Compound having effects of inhibiting phosphodiesterase 4, preparation method thereof and pharmaceutical use thereof” (Hefei Industrial Pharmaceutical Institute Co., Ltd., priority 2018, dated 2021)
Marks after values point to notes of the source that are not given here.

Key:
PDE4A enzyme = target: T1, PDE4A enzyme (Homo sapiens, UniProt P27815); test: Inhibition of the activity of PDE4A enzyme (fluorescence polarization, Transcreener AMP2/GMP2); assay type: biochemical; conditions: 1 h, mean ± spread; for remaining activity at 0.01 µM: 0.01 μM compound; for remaining activity at 0.1 µM: 0.1 μM compound; for remaining activity at 1 µM: 1 μM compound
T1 construct: GST (N); host or cells: Sf9 insect cells (baculovirus)
Experimental: The PDE4A enzyme expressed from baculovirus is labeled with N-terminal GST from Sf9 insect cells. A specified PDE4A enzyme and 1 mM cAMP are added to the newly prepared pH 7.5 Tris buffer, the enzyme solution is transferred into reaction wells, and the compound is sonicated in DMSO and then added to the enzyme solution for culturing for 10 minutes at room temperature; the substrate solution is poured into the reaction wells to initiate the reaction and cultured at room temperature for 1 hour, and a detection tracer (AMP2/GMP2 AlexaFluor 633 Tracer) and an antibody (Transcreener® AMP2/GMP2 Antibody) are added to stop the reaction for culturing for 90 minutes with gentle mixing. […]

[1] = test system: DNCB-induced atopic dermatitis mice; test: DNCB-induced dermatitis mouse model, skin thickness; assay type: in vivo, female BALB/C mice; conditions: for reduction of the thickness of the dermis compared with Crisaborole / reduction of the thickness of the epidermis compared with Crisaborole / reduction of the thickness of the dermis compared with the compound Y5 / reduction of the thickness of the epidermis compared with the compound Y5: 50 mg/mL topical; for reduction of the thickness of the dermis compared with Crisaborole / reduction of the thickness of the epidermis compared with Crisaborole: statistical comparison vs Crisaborole group; for reduction of the thickness of the dermis compared with the compound Y5 / reduction of the thickness of the epidermis compared with the compound Y5: statistical comparison vs Y5 group; for Epidermal thickness / Dermis thickness: 50 mg/mL, 100 μL applied to back skin, 11 times once a day, Mean ± SD, n = 8; for Epidermal thickness: model 137.76, blank 48.93; for Dermis thickness: model 500.71, blank 194.70
Experimental: After female BALB/C mice are selected, each weighing 18-22 g, for animal adaptive breeding for 7 days, these are randomly divided into a blank group, a model group, a positive drug Crisaborole group, a hexadecadrol group, and compound groups, with 8 in each group. Except for the mice in the blank group, the remaining mice are applied with 100 μL of a 1% DNCB solution [acetone: olive oil=4:1 (V/V)] on the skin of the back of the shaved mice, and applied continuously for 3 days once a day. Then, dosing treatment starts 4 days after the mice are housed, and the test drug is applied to the back of each group of animals, wherein animals in the blank group and the model group are applied with a corresponding solvent, the positive drug Crisaborole group and hexadecadrol group are applied with 50 mg/mL of a corresponding drug, and the administration group is applied with 50 mg/mL of a corresponding compound, with 100 μL for each mouse; after application of 4 hours, 0.5% DNCB solution is applied for secondary challenge, and repeated administration and challenge treatment are performed 11 times, once a day. 24 hours after the last administration, the animals are sacrificed, and the back skins (1×0.4 cm^2) are taken and fixed in 10% formalin buffer to make pathological sections and perform HE staining; then, the epidermal and dermal layers are observed under a 100× […], and 5 areas are selected for detection of and recording the skin thickness, and then the average value is taken to represent the final thicknesses of the epidermal layer and dermal layer, respectively.

T1 sequence (P27815 whole entry, species assumed): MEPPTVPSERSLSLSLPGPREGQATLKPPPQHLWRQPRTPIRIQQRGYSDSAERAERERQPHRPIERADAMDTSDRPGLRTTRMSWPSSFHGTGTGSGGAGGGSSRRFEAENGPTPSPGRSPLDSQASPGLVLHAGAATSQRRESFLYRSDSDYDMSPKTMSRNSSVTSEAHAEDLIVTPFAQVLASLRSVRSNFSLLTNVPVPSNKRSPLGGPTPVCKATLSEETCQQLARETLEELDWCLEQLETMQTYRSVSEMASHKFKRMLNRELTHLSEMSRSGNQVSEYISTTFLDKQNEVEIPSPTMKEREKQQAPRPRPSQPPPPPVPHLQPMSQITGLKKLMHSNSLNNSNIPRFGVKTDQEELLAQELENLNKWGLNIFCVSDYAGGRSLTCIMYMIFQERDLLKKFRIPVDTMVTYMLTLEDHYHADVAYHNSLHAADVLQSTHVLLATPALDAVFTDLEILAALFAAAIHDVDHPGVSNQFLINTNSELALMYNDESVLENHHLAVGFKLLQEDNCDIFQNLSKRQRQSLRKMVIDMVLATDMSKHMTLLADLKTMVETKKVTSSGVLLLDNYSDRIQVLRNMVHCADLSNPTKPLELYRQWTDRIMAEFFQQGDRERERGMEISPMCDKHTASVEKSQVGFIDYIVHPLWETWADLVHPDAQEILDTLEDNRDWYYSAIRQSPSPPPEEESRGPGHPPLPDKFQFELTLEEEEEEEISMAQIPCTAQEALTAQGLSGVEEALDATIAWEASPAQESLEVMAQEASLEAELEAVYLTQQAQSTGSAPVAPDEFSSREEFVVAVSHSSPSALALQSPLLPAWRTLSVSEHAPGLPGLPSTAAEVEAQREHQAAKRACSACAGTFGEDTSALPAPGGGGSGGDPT

Row | SMILES | remaining activity at 0.01 µM (PDE4A enzyme) [%] | remaining activity at 0.1 µM (PDE4A enzyme) [%] | remaining activity at 1 µM (PDE4A enzyme) [%] | reduction of the thickness of the dermis compared with Crisaborole [1] | reduction of the thickness of the epidermis compared with Crisaborole [1] | reduction of the thickness of the dermis compared with the compound Y5 [1] | reduction of the thickness of the epidermis compared with the compound Y5 [1] | Epidermal thickness [1] | Dermis thickness [1]
1 | OB1OCc2cc(Oc3cc(F)c4cc(C(F)(F)F)ccc4n3)ccc21 [PD-21] | 1.64 ± 0.55 | 0.33 ± 0.23 | 0.28 ± 0.14 | significantly reduce the thickness of the dermis of dermatitis mice (P≤0.01) | significantly reduce the thickness of the epidermis (P≤0.01) | significantly reduce the thickness of the dermis of dermatitis mice (P≤0.05) | significantly reduce the thickness of the epidermis (P≤0.01) | 70.62 ± 7.12 ^aa μm | 383.34 ± 24.40**^##a μm
2 | N#Cc1ccc2nc(Oc3ccc4c(c3)COB4O)ccc2c1 [PD-4] | 6.17 ± 0.34 | 2.49 ± 0.75 | 1.95 ± 0.18 | significantly reduce the thickness of the dermis of dermatitis mice (P≤0.01) | significantly reduce the thickness of the epidermis (P≤0.01) | significantly reduce the thickness of the dermis of dermatitis mice (P≤0.01) | significantly reduce the thickness of the epidermis (P≤0.01) | 70.42 ± 9.24 aa μm | 375.06 ± 20.41 a a μm
3 | COC(=O)c1cc(Oc2ccc3c(c2)COB3O)nc2ccccc12 [PD-5] | 9.01 ± 2.02 | 7.27 ± 1.78 | 3.46 ± 1.18 | – | – | – | – | 106.74 ± 15.14 μm | 440.12 ± 23.22 μm
4 | COC(=O)c1ccc2nc(Oc3ccc4c(c3)COB4O)cc(C(F)(F)F)c2c1 [PD-18] | 1.52 ± 0.44 | 0.46 ± 0.35 | 0.13 ± 0.06 | – | – | – | – | 90.35 ± 11.20 μm | 436.16 ± 35.42 μm
5 | O=C(O)c1cccc2nc(Oc3ccc4c(c3)COB4O)ccc12 [PD-2] | 7.42 ± 2.11 | 3.8 ± 0.76 | 2.75 ± 0.51 | – | – | – | – | 100.26 ± 11.35 μm | 439.76 ± 30.02 μm
6 | N#Cc1ccc2cc(Oc3ccc4c(c3)COB4O)ccc2c1 [PD-25] | 7.17 ± 0.64 | 1.95 ± 1.18 | 2.27 ± 0.74 | significantly reduce the thickness of the dermis of dermatitis mice (P≤0.05) | significantly reduce the thickness of the epidermis of the dermatitis mice (P≤0.05) | – | – | 87.77 ± 10.58 μm | 412.42 ± 26.74 μm
7 | CC(=O)c1ccc2nc(Oc3ccc4c(c3)COB4O)ccc2c1 [PD-14] | 3.57 ± 1.08 | 1.26 ± 1.17 | 0.15 ± 0.1 | significantly reduce the thickness of the dermis of dermatitis mice (P≤0.01) | significantly reduce the thickness of the epidermis (P≤0.01) | significantly reduce the thickness of the dermis of dermatitis mice (P≤0.01) | significantly reduce the thickness of the epidermis (P≤0.01) | 75.24 ± 7.98 aa μm | 365.40 ± 21.95 ^a a μm
8 | COC(=O)c1cccc2nc(Oc3ccc4c(c3)COB4O)ccc12 [PD-1] | 18.8 ± 3.23 | 5.45 ± 1.06 | 3.74 ± 0.71 | significantly reduce the thickness of the dermis of dermatitis mice (P≤0.01) | significantly reduce the thickness of the epidermis (P≤0.01) | significantly reduce the thickness of the dermis of dermatitis mice (P≤0.05) | significantly reduce the thickness of the epidermis (P≤0.01) | 75.64 ± 7.86 aa μm | 385.26 ± 20.17 a μm
9 | CC(=O)c1ccc2nc(Oc3ccc4c(c3)COB4O)cc(C(F)(F)F)c2c1 [PD-19] | 4.22 ± 0.86 | 1.56 ± 0.48 | 0.54 ± 0.47 | – | – | – | – | 96.05 ± 9.75 μm | 441.12 ± 30.17 μm
10 | OB1OCc2cc(Oc3cc(C(F)(F)F)c4cc(C(F)(F)F)ccc4n3)ccc21 [PD-17] | 4.17 ± 0.99 | 1.89 ± 0.6 | 0.77 ± 0.39 | significantly reduce the thickness of the dermis of dermatitis mice (P≤0.01) | significantly reduce the thickness of the epidermis (P≤0.01) | significantly reduce the thickness of the dermis of dermatitis mice (P≤0.01) | – | 80.76 ± 10.51 μm | 380.74 ± 20.15 ^a a μm
11 | COC(=O)c1cccc2cc(Oc3ccc4c(c3)COB4O)ccc12 [PD-24] | 9.17 ± 1 | 7.31 ± 1.16 | 2.64 ± 0.56 | significantly reduce the thickness of the dermis of dermatitis mice (P≤0.05) | significantly reduce the thickness of the epidermis of the dermatitis mice (P≤0.05) | – | – | 91.17 ± 9.03 μm | 420.33 ± 24.75 μm
12 | COC(=O)c1ccc2nc(Oc3ccc4c(c3)COB4O)ccc2c1 [PD-10] | 10.8 ± 1.6 | 2.45 ± 0.32 | 1.55 ± 0.67 | significantly reduce the thickness of the dermis of dermatitis mice (P≤0.01) | significantly reduce the thickness of the epidermis (P≤0.01) | – | – | 92.17 ± 9.94 μm | 406.74 ± 29.54 μm
13 | N#Cc1ccc2nc(Oc3ccc4c(c3)COB4O)cc(C(F)(F)F)c2c1 [PD-9] | 3.41 ± 0.45 | 1.92 ± 0.39 | 0.99 ± 0.85 | significantly reduce the thickness of the dermis of dermatitis mice (P≤0.05) | significantly reduce the thickness of the epidermis of the dermatitis mice (P≤0.05) | – | – | 97.25 ± 10.43 μm | 413.25 ± 31.50 μm
14 | OB1OCc2cc(Oc3ccc4cc(C(F)(F)F)ccc4c3)ccc21 [PD-23] | 9.26 ± 0.73 | 4.51 ± 0.94 | 2.45 ± 0.76 | – | – | – | – | 97.34 ± 8.36 μm | 435.56 ± 27.08 μm
